Where two headings read alike, the source gives them in different places. Each block holds one compound with its values, some of them ahead of it.
Experiments:
[1] = In vivo skin delivery: tape stripping (stratum corneum) and skin extraction (underlying skin); set-up: species or system hairless rat
Source text: After wiping excess drug off the skin using a moist kimwipe, pre-weighed tape strips were placed on the area exposed to the drug and made sure they adhered to the skin by rolling with a glass rod for 30 seconds. After rolling, the tape strips were held from one end with a pair of forceps and ripped off the skin very quickly. The first strip was discarded to remove the remnants of the drug on the skin. This process was continued with 30 strips to fully remove the stratum corneum and each strip analyzed for drug content by immersing in 1 mL extraction buffer for 1 hr under gentle stirring (150 rpm). […] All tape strip extracts were analyzed with HPLC. […] TEWL values were also recorded after every five strips.
After tape stripping, the rats were euthanized and the underlying skin excised. Before proceeding for skin extraction studies, the weight of the excised skin piece was recorded. This excised skin was minced into small pieces and placed into glass vials. To this minced skin, 1 mL deionised water was added and shaken for 30 minutes on a shaker. To this 100 μL of 0.1% HCl was added and centrifuged. To the centrifuged sample 6 mL of methylene chloride was added and shaken for 30 minutes. The methylene chloride (organic) extract was then evaporated under nitrogen. The methylene chloride addition and evaporation step was repeated and combined with the previous extraction. After evaporation, the samples were reconstituted using 1 mL of acetonitrile, filtered and filled in HPLC vials and analyzed accordingly. For TMCA, 30/70 chloroform and methanol was used as the extraction solvent. […] The measured drug levels from the skin were corrected for recovery.
(§1) The effect of iontophoresis on the intradermal and transdermal permeation of TMCA using hairless rat skin in vitro was investigated using methods previously described. In addition, the amount of drug deposited in the stratum corneum and underlying skin after iontophoresis was quantified in vivo using tape stripping and skin extraction methods described previously. TMCA (3.5 mg/ml) was formulated in 15% cremophor RH40, 25% PEG 400 and 25% ethanol (95%), in citrate buffer pH 5.0. Anodal iontophoresis was performed for 1 h at 0.2 mA/cm^2.
Hairless rats (n=4 per group) were anesthetized with ketamine (75 mg/kg) and xylazine (10 mg/kg) administered intraperitoneally. Once the rats were anaesthetized, the abdominal area was wiped with water and alcohol swabs. The cartridge loaded with the donor formulation was placed on the abdomen of each rat and connected to the power supply (Keithley Instruments, Cleveland, Ohio) for cathodal delivery. The counter electrode was placed around 3 cm away from the drug cartridge, and connected to the respective polarity of the power supply. The cartridge and the counter electrode were made sure to be in contact with the skin and a bandage was placed to prevent them from any further movement. Skin portion around the cartridge approximately 0.5 cm was marked for excision after the study to determine the lateral diffusion of the drug. Iontophoresis was conducted at a current density of 0.2 mA/cm^2 for 15 or 60 minutes. The donor cartridge was removed from the skin after iontophoresis and the skin was wiped with a moist kimwipe to remove any remaining drug on the skin. The skin was then tape stripped (30 strips) to remove the stratum corneum and the drug in the strips evaluated (with the first strip discarded for surface drug removal). The drug in the underlying skin was then extracted.

[2] = Solubility in solubilizer solutions (shaken overnight, supernatant by HPLC); assay type: physicochemical; settings: for solubility: solubilizer solution, thermodynamic from solid, read-out: Solubility, Final conc
Experimental: Triamcinolone acetonide is poorly ionized and has a poor solubility profile; to overcome this, individual as well as combinations of potential solubilizers were tested. TMCA (2.5 mg) was mixed into 1 mL of the individual components or mixtures of potential solubilizers and shaken overnight; drug was then added to all clear solutions which were then mixed overnight. The samples were then centrifuged and the supernatants analyzed by HPLC to determine drug solubility.
DEX-P (100 mg) was mixed into 1 mL of the individual components or mixtures of potential solubilizers and shaken overnight. Additional drug (100 mg) was added to clear solutions and mixed overnight. The samples were then centrifuged and the supernatants analyzed by HPLC to determine drug solubility.

[3] = Iontophoretic drug permeation through hairless rat skin in Franz diffusion cells; assay type: in vitro ADME
Experimental: Full thickness abdominal skin freshly excised from sacrificed hairless rats was equilibrated in the receptor buffer and mounted on Franz diffusion cells (0.64 cm^2). The donor compartment (0.5 ml) contained corticosteroid in an appropriate buffer. […] For triamcinolone acetonide (TMCA), 3.5 mg/mL TMCA formulation (in 25% w/w PEG 400, 25% ETOH, 15% cremophor RH40, qs to 100% with citrate buffer pH 5.0) was used for the donor compartment. […] The receptor compartment for TMCA was citrate buffer with 20% ethanol. […] TMCA has no charge at pH 5 and was therefore delivered by anodal iontophoresis to utilize electroosmosis. […] For TMCA, the anode (Silver-Silver Chloride) was placed in the donor chamber along with drug solution and the cathode (Silver wire) was placed in the receptor chamber. Electric current (0.2 to 0.4 mA/cm^2) was applied using a custom current control device for up to 1 hr, after which experiments were either terminated or allowed to continue passively for various durations. Samples (0.3 ml) were taken from the receptor chamber at predetermined time points following iontophoresis and were replaced with the same amount of receptor buffer. The apparatus was maintained at 37° C. with constant stirring in both the donor and receptor compartments to maintain sink conditions. The samples were then analyzed by HPLC to measure drug permeation through skin. […] The mobile phase consisted of 75/25 ammonium acetate (5 mM) and acetonitrile. For TMCA, samples of receptor fluid (injection volume 20 uL, run time 8 min) were analyzed using the same HPLC system with a flow rate of 0.8 ml/min and UV detection at 237 nm. The mobile phase consisted of 70/30 methanol and water. […] Control passive experiments were conducted in the same way except for the application of electric current. Data were expressed as means±standard deviations. All experiments were performed in at least triplicate.
Samples were removed periodically from the receptor and analyzed by HPLC.
Samples were measured periodically from the receptor and analyzed by HPLC over 24 hrs.
as §1

[4] = 3.5 mg/ml, pH 5.0, anodal iontophoresis 0.2 mA/cm^2 for 1 h
[5] = 3.5 mg/ml, pH 5.0, passive delivery
[6] = cathodal 0.2 mA/cm2 for 15 minutes, FIG. 6B
[7] = cathodal 0.2 mA/cm^2 for 60 minutes, FIG. 6A

Compound: CC1(C)O[C@@H]2C[C@H]3[C@@H]4CCC5=CC(=O)C=C[C@]5(C)[C@@]4(F)[C@@H](O)C[C@]3(C)[C@]2(C(=O)CO)O1 [TMCA, triamcinolone acetonide]
amount deposited in the underlying skin after tape stripping, iontophoresis [1, 4]: 1.15 ± 0.32 µg
amount in the stratum corneum, iontophoresis [1, 4]: 16.43 ± 1.99 µg
amount deposited in the underlying skin after tape stripping, passive [1, 5]: 0.34 ± 0.08 µg
amount in the stratum corneum, passive [1, 5]: 19.66 ± 1.35 µg
Solubility, Final conc ([2]; 15% cremophor, 25% ethanol, 25% PEG 400 (w/w)): 4420 µg/mL
Solubility, Final conc ([2]; 15% cremophor, 25% ethanol, 25% PEG 3350 (w/w)): 1980 µg/mL
solubility ([2]; aqueous with cosolvent or surfactant or cyclodextrin, 5% tween 80 (w/w)): 120 µg/mL
solubility ([2]; aqueous with cosolvent or surfactant or cyclodextrin, 15% cremophor (w/w)): 480 µg/mL
solubility ([2]; aqueous with cosolvent or surfactant or cyclodextrin, 15% cremophor, 25% ethanol (w/w)): 1380 µg/mL
solubility ([2]; aqueous with cosolvent or surfactant or cyclodextrin, 15% cremophor, 25% ethanol, 25% glycerin (w/w)): 2430 µg/mL
solubility ([2]; aqueous with cosolvent or surfactant or cyclodextrin, 15% cremophor, 50% PEG 400 (w/w)): 1240 µg/mL
solubility ([2]; aqueous with cosolvent or surfactant or cyclodextrin, 15% cremophor, 50% glycerin (w/w)): 1180 µg/mL
solubility ([2]; aqueous with cosolvent or surfactant or cyclodextrin, 25% PEG 400 (w/w)): 70 µg/mL
solubility ([2]; aqueous with cosolvent or surfactant or cyclodextrin, 25% PEG 3350 (w/w)): 80 µg/mL
solubility ([2]; aqueous with cosolvent or surfactant or cyclodextrin, 25% Propylene glycol (w/w)): 60 µg/mL
solubility ([2]; aqueous with cosolvent or surfactant or cyclodextrin, 25% ethanol (w/w)): 230 µg/mL
solubility ([2]; aqueous with cosolvent or surfactant or cyclodextrin, 25% glycerin (w/w)): 30 µg/mL
levels in the receptor chamber ([3]; 3.5 mg/ml in 15% cremophor RH40, 25% PEG 400, 25% ethanol, citrate buffer pH 5.0, with or without anodal iontophoresis 0.2 mA/cm^2 for 1 h): No detectable levels

initial drug level in stratum corneum, iontophoresis 15 min [1, 6]: 13.63 ± 2.4 µg
initial drug level in underlying skin, iontophoresis 15 min [1, 6]: 1.70 ± 1.70 µg
amount in stratum corneum, iontophoresis 60 min [1, 7]: 23.70 ± 6.19 µg
amount in underlying skin, iontophoresis 60 min [1, 7]: 2.18 ± 0.69 µg
total delivered into skin, iontophoresis ([1]; phosphate buffer pH 7.4, cathodal 0.2 mA/cm^2 for 60 minutes, immediately after, FIG. 6A): 25.88 ± 5.91 µg
total delivered into skin, passive ([1]; phosphate buffer pH 7.4, passive treatment 60 minutes, FIG. 6A): 13.31 ± 2.69 µg
drug in peripheral skin areas outside the contact area (lateral diffusion) ([1]; skin about 0.5 cm around the cartridge): No drug was detected
solubility ([2]; aqueous buffer, Phosphate buffer): 70000 µg/mL
solubility ([2]; aqueous with cosolvent or surfactant or cyclodextrin, 15% ethanol (95%), 20% PEG400, 20% glycerin, in phosphate buffer (w/w)): 156000 µg/mL
solubility ([2]; aqueous with cosolvent or surfactant or cyclodextrin, 15% ethanol (95%), 30% PEG400, 20% glycerin, in phosphate buffer (w/w)): 197000 µg/mL
cumulative permeation over 24 hrs, passive ([3]; 25 mg/mL in phosphate buffer pH 7.4, passive delivery (no current), FIG. 2): initially low but gradual increase
permeation over time, 4 hr iontophoresis ([3]; 25 mg/mL, pH 7.4, cathodal 0.4 mA/cm^2 for 4 hr, FIG. 3): highest permeation
permeation over time, 25 and 50 mg/mL ([3]; 25 and 50 mg/mL in phosphate buffer pH 7.4, cathodal 0.2 mA/cm^2 for 1 hr, 24 hrs, FIG. 4): similar
Compound: C[C@@H]1C[C@H]2[C@@H]3CCC4=CC(=O)C=C[C@]4(C)[C@@]3(F)[C@@H](O)C[C@]2(C)[C@@]1(O)C(=O)COP(=O)(O)O [DEX, dexamethasone sodium phosphate]
drug level in the skin over time after iontophoresis (depot) ([1]; 0.2 mA/cm2 for 15 minutes, measured 0, 24 and 48 hours after, FIG. 6C): decreased slowly over time and was detectable at 48 hrs after iontophoresis
localization of drug in skin, passive ([1]; passive group, 60 minutes): all of the drug was localized in the stratum corneum layer
permeation over time, 10 mg/mL ([3]; 10 mg/mL in phosphate buffer pH 7.4, cathodal 0.2 mA/cm^2 for 1 hr, 24 hrs, FIG. 4): lower permeation over time compared to the higher drug concentrations
cumulative permeation over 24 hrs, iontophoresis ([3]; 25 mg/mL in phosphate buffer pH 7.4, cathodal 0.4 mA/cm^2 for 1 hr, sampled 24 hrs, FIG. 2): increased quite rapidly during the initial several hours and continued to increase up to 24 hrs
cumulative permeation, cathodal vs anodal iontophoresis ([3]; 25 mg/mL, cathodal in phosphate buffer pH 7.4 vs anodal in citrate buffer pH 3.5, 0.4 mA/cm^2 for 2 hours, sampled for 24 hrs, FIG. 1): significant improvement in permeation compared to anodal iontophoresis

Source: patent publication US20110281834A1, “Pharmaceutical Formulations for Iontophoretic Delivery of a Corticosteroid” (priority 2008, published 2011)
